Our source for the IC50 values is US8987286B2, “Substituted pyrimido[1,2-b]indazoles and their use as modulators of the Pi3K/Akt pathway” (Bayer Intellectual Property GmbH, priority 2010, dated 2015).

Chain of Akt1 (P31749 whole entry): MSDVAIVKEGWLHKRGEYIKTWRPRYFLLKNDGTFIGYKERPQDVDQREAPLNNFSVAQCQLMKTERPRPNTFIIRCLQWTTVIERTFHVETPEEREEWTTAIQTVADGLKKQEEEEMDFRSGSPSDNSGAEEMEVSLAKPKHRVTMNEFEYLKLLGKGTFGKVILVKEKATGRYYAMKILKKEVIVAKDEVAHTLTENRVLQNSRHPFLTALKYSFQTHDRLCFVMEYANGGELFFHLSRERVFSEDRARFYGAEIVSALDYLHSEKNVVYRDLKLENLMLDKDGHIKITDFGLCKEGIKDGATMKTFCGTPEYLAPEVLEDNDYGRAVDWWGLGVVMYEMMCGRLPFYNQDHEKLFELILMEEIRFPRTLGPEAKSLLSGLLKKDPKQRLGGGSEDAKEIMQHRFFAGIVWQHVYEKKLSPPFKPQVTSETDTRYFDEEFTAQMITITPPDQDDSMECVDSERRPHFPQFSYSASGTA

The target in the experiment is Akt1 (Homo sapiens (Human), UniProt P31749). As to the kind of experiment: Akt1 kinase assay (Akt1 TR-FRET assay). It counts as biochemical. The conditions noted are these: His-tagged human recombinant full-length Akt1, 10 μM ATP, 1 μM peptide substrate. The source says:
Biological Assay 1.0: Akt1 Kinase Assay
Akt1 inhibitory activity of compounds of the present invention was quantified employing the Akt1 TR-FRET assay as described in the following paragraphs.
His-tagged human recombinant kinase full-length Akt1 expressed in insect cells was purchased form Invitrogen (part number PV 3599). As substrate for the kinase reaction the biotinylated peptide biotin-Ahx-KKLNRTLSFAEPG (C-terminus in amide form) was used which can be purchased e.g. from the company Biosynthan GmbH (Berlin-Buch, Germany).
For the assay 50 nl of a 100 fold concentrated solution of the test compound in DMSO was pipetted into a black low volume 384 well microtiter plate (Greiner Bio-One, Frickenhausen, Germany), 2 μl of a solution of Akt1 in assay buffer [50 mM TRIS/HCl pH 7.5, 5 mM MgCl2, 1 mM dithiothreitol, 0.02% (v/v) Triton X-100 (Sigma)] were added and the mixture was incubated for 15 min at 22° C. to allow pre-binding of the test compounds to the enzyme before the start of the kinase reaction. Then the kinase reaction was started by the addition of 3 μl of a solution of adenosine-tri-phosphate (ATP, 16.7 μM=>final conc. in the 5 μl assay volume is 10 μM) and substrate (1.67 μM=>final conc. in the 5 μl assay volume is 1 μM) in assay buffer and the resulting mixture was incubated for a reaction time of 60 min at 22° C. The concentration of Akt1 in the assay was adjusted depending of the activity of the enzyme lot and was chosen appropriate to have the assay in the linear range, typical enzyme concentrations were in the range of about 0.05 ng/μl (final conc. in the 5 μl assay volume).
The reaction was stopped by the addition of 5 μl of a solution of HTRF detection reagents (200 nM streptavidine-XL665 [Cisbio] and 1.5 nM anti-phosho-Serine antibody [Millipore, cat. #35-001] and 0.75 nM LANCE Eu-W 1024 labeled anti-mouse IgG antibody [Perkin Elmer]) in an aqueous EDTA-solution (100 mM EDTA, 0.1% (w/v) bovine serum albumin in 50 mM HEPES/NaOH pH 7.5).
The resulting mixture was incubated 1 h at 22° C. to allow the binding of the biotinylated phosphorylated peptide to the streptavidine-XL665 and the antibodies. Subsequently the amount of phosphorylated substrate was evaluated by measurement of the resonance energy transfer from the anti-mouse-IgG-Eu-Chelate to the streptavidine-XL665. Therefore, the fluorescence emissions at 620 nm and 665 nm after excitation at 350 nm was measured in a HTRF reader, e.g. a Rubystar (BMG Labtechnologies, Offenburg, Germany) or a Viewlux (Perkin-Elmer). The ratio of the emissions at 665 nm and at […] was taken as the measure for the amount of phosphorylated substrate. The data were normalised (enzyme reaction without inhibitor=0% inhibition, all other assay components but no enzyme=100% inhibition).
For orientation: IC50 means the concentration needed to halve the response being measured. With `CS(=O)(=O)c1cccc(-c2cccc3c2nn2cc(-c4ccccc4)c(-c4ccc(C5(N)CCC5)cc4)nc32)c1` [Example 8.4, 1-{4-[7-(3-Mesylphenyl)-3-phenylpyrimido[1,2-b]indazol-2-yl]-phenyl}cyclobutylamine], the half-maximal inhibitory concentration (IC50) was 17000 nM. The figure for `NC1(c2ccc(-c3nc4c5cccc(-c6cn[nH]c6)c5nn4cc3-c3ccccc3)cc2)CCC1` [Example 8.5, 1-{4-[3-Phenyl-7-(1H-pyrazol-4-yl)pyrimido[1,2-b]indazol-2-yl]-phenyl}cyclobutylamine×0.5 formiate] is 160 nM; for `COC(=O)c1cccc2c1nn1cc(-c3ccccc3)c(-c3ccc(C4(N)CCC4)cc3)nc21` [Example 10, 2-[4-(1-Aminocyclobutyl)phenyl]-3-phenylpyrimido[1,2-b]indazole-7-carboxylic acid methyl ester formiate] it is 740 nM; for `NC(=O)/C=C/c1cccc2c1nn1cc(-c3ccccc3)c(-c3ccc(C4(N)CCC4)cc3)nc21` [Example 14, (E)-3-{2-[4-(1-Aminocyclobutyl)phenyl]-3-phenylpyrimido[1,2-b]indazol-7-yl}-acrylamide] it is 580 nM. Regarding `NC1(c2ccc(-c3nc4c5ccc(-c6ccn[nH]6)cc5nn4cc3-c3ccccc3)cc2)CCC1` [Example 15.0, 1-{4-[3-Phenyl-8-(1H-pyrazol-5-yl)pyrimido[1,2-b]indazol-2-yl]phenyl}-cyclobutylamine], the IC50 is 15 nM. `Cc1cc(-c2ccc3c(c2)nn2cc(-c4ccccc4)c(-c4ccc(C5(N)CCC5)cc4)nc32)[nH]n1` [Example 15.1, 1-{4-[8-(3-Methyl-1H-pyrazol-5-yl)-3-phenylpyrimido[1,2-b]indazol-2-yl]phenyl}cyclobutylamine]: the IC50 came to 10 nM. Turning to `NC1(c2ccc(-c3nc4c5cc(-c6ccn[nH]6)ccc5nn4cc3-c3ccccc3)cc2)CCC1` [Example 15.2, 1-{4-[3-Phenyl-9-(1H-pyrazol-5-yl)pyrimido[1,2-b]indazol-2-yl]-phenyl}cyclobutylamine], the 50% inhibitory concentration (IC50) is 10 nM. Next, `Cc1cc(-c2ccc3nn4cc(-c5ccccc5)c(-c5ccc(C6(N)CCC6)cc5)nc4c3c2)[nH]n1` [Example 15.3, 1-{4-[9-(3-Methyl-1H-pyrazol-5-yl)-3-phenylpyrimido[1,2-b]indazol-2-yl]phenyl}cyclobutylamine]: 6 nM. The figure for `COC(=O)/C=C/c1ccc2nn3cc(-c4ccccc4)c(-c4ccc(C5(N)CCC5)cc4)nc3c2c1` [Example 15.4, (E)-3-{2-[4-(1-Aminocyclobutyl)phenyl]-3-phenylpyrimido[1,2-b]indazol-9-yl}acrylic acid methyl ester] is 10 nM.

As for `NC(=O)/C=C/c1ccc2nn3cc(-c4ccccc4)c(-c4ccc(C5(N)CCC5)cc4)nc3c2c1` [Example 15.5, (E)-3-{2-[4-(1-Aminocyclobutyl)phenyl]-3-phenylpyrimido[1,2-b]indazol-9-yl}acrylamide], the IC50 was found to be 30 nM.
